We go through ten compounds from patent US20250051277A1, “DELIVERY OF THERAPEUTIC ALKALOID COMPOUNDS” (Sensorium Therapeutics, Inc., priority 2021, published 2025).

Read-outs that look alike come from different tables or passages of the source.

For data set [1] the following is noted: 10 μM.
Experimental: 50 μL aliquots of positive controls and test compounds spiked into rat or human plasma (n=2) were added to a pre-warmed plate (37° C.) and shaken at 50 rpm. At each respective time point, the reaction was stopped by adding 500 μL of acetonitrile containing internal standards (100 nM aprozolam, 200 nM caffeine, 100 nM tolbutamide). All samples were vortexed for 10 minutes, followed by centrifugation at 3,220 g for 30 minutes to precipitate proteins. 100 μL of the supernatant is transferred to a new plate. The supernatant will be diluted with ultrapure water according to the LC-MS signal response and peak shape.
For data set [2] the following is noted: 10 μM. The source holds these as a separate data set.
The format of data set [3] is physicochemical. Particulars: DI water, 25° C., 0.5 mM.
Data set [4] is classed as physicochemical. To be noted: SGF with pepsin, pH 1.5, 37° C., 0.5 mM.

`COc1ccc([C@@]23CCC(OC(=O)c4c(C)cc(C)cc4C)=C[C@@H]2N(C)CC3)cc1OC` [Compound 356, (3aS,7aS)-3a-(3,4-dimethoxyphenyl)-1-methyl-2,3,3a,4,5,7a-hexahydro-1H-indol-6-yl2,4,6-trimethylbenzoate]: the “Prodrug (%) remaining, Rat Plasma” value in data set [1] (0 h) is on record as 100.0%; in data set [1] (10 min), >99%; in data set [1] (0.5 h) it was >99%; in data set [1] (1 h), >99%; in data set [1] (2 h) it was >99%; in data set [1] (4 h) it was 95.8%. The “Prodrug (%) remaining, Human Plasma” value in data set [2] (0 h) was 100.0%; in data set [2] (10 min) it was >99%; in data set [2] (0.5 h), >99%; in data set [2] (1 h) it was >99%; in data set [2] (2 h) it was >99%; in data set [2] (4 h) it was >99%.
On to `COc1ccc([C@@]23CCC(=NNc4cnccn4)C[C@@H]2N(C)CC3)cc1OC` [Compound 365, N-[[(3aS,7aS)-3a-(3,4-dimethoxyphenyl)-1-methyl-2,3,4,5,7,7a-hexahydroindol-6-ylidene]amino]pyrazin-2-amine], for which the “Condition 2 Conversion (%)” value in data set [3] (time 1 min) was 0%; in data set [3] (time 5 min) it was 0%; in data set [3] (time 30 min), 10.11%; in data set [3] (time 1 h) it was 11.33%; in data set [3] (time 4 h), 12.6%; in data set [3] (time 24 h), 17.4%. The “Condition 1 Conversion (%)” value in data set [4] (time 1 min) is 0%; in data set [4] (time 5 min), 8.9%; in data set [4] (time 30 min), 47.1%; in data set [4] (time 1 h), 77.4%; in data set [4] (time 4 h), 94.1%; in data set [4] (time 24 h), 100%.
Take `COc1ccc([C@@]23CCC(=NNc4ccc5ccccc5n4)C[C@@H]2N(C)CC3)cc1OC` [Compound 366, N-[[(3aS,7aS)-3a-(3,4-dimethoxyphenyl)-1-methyl-2,3,4,5,7,7a-hexahydroindol-6-ylidene]amino]quinolin-2-amine]: the “Condition 2 Conversion (%)” value in data set [3] (time 1 min) came out at 0%; in data set [3] (time 5 min), 0%; in data set [3] (time 30 min) it was 10.11%; in data set [3] (time 1 h), 11.33%; in data set [3] (time 4 h) it was 12.6%; in data set [3] (time 24 h), 17.4%. The “Condition 1 Conversion (%)” value in data set [4] (time 1 min) is 0%; in data set [4] (time 5 min), 8.9%; in data set [4] (time 30 min) it was 47.1%; in data set [4] (time 1 h), 77.4%; in data set [4] (time 4 h) it was 94.1%; in data set [4] (time 24 h) it was 100%.
Take `COc1ccc([C@@]23CCC(=NNCc4cccc(C)c4)C[C@@H]2N(C)CC3)cc1OC` [Compound 367, N-[[(3aS,7aS)-3a-(3,4-dimethoxyphenyl)-1-methyl-2,3,4,5,7,7a-hexahydroindol-6-ylidene]amino]-1-(m-tolyl)methanamine]: the “Condition 2 Conversion (%)” value worked out at 5% in data set [3] (time 1 min); 8.3% in data set [3] (time 5 min); 11.5% in data set [3] (time 30 min); 11.92% in data set [3] (time 1 h); 13.32% in data set [3] (time 4 h); 20% in data set [3] (time 24 h). Further, the “Condition 1 Conversion (%)” value in data set [4] (time 1 min), in data set [4] (time 5 min), in data set [4] (time 30 min), in data set [4] (time 1 h), in data set [4] (time 4 h) and in data set [4] (time 24 h) was 100% each time.
Consider `COc1ccc([C@@]23CCC(=NNCc4ccccn4)C[C@@H]2N(C)CC3)cc1OC` [Compound 369, (3aS,7aS)-3a-(3,4-dimethoxyphenyl)-1-methyl-6-(2-(pyridin-2-ylmethyl)hydrazineylidene)octahydro-1H-indole], for which the “Condition 2 Conversion (%)” value in data set [3] (time 1 min) turned out to be 0%; in data set [3] (time 5 min) it was 0%; in data set [3] (time 30 min) it was 0%; in data set [3] (time 1 h), 0%; in data set [3] (time 4 h), 45%; in data set [3] (time 24 h), 50%. Besides, the “Condition 1 Conversion (%)” value in data set [4] (time 1 min) turned out to be 30%; in data set [4] (time 5 min), 100%; in data set [4] (time 30 min), 100%; in data set [4] (time 1 h), 100%; in data set [4] (time 4 h), 100%; in data set [4] (time 24 h), 100%.
Turning to `COc1ccc([C@@]23CCC(=NNCc4cccnc4)C[C@@H]2N(C)CC3)cc1OC` [Compound 370, N-[[(3aS,7aS)-3a-(3,4-dimethoxyphenyl)-1-methyl-2,3,4,5,7,7a-hexahydroindol-6-ylidene]amino]-1-(3-pyridyl)methanamine], the “Condition 2 Conversion (%)” value in data set [3] (time 1 min) worked out at 0%; in data set [3] (time 5 min), 0%; in data set [3] (time 30 min) it was 0%; in data set [3] (time 1 h) it was 10%; in data set [3] (time 4 h), 30%; in data set [3] (time 24 h), 70%. Besides, the “Condition 1 Conversion (%)” value in data set [4] (time 1 min) is 20%; in data set [4] (time 5 min), 40%; in data set [4] (time 30 min) it was 100%; in data set [4] (time 1 h) it was 100%; in data set [4] (time 4 h), 100%; in data set [4] (time 24 h), 100%.
For `CCCCCCCC(=O)OC1=C[C@@H]2N(C)CC[C@]2(c2ccc(OC)c(OC)c2)CC1` [Compound 395, (3aS,7aS)-3a-(3,4-dimethoxyphenyl)-1-methyl-2,3,3a,4,5,7a-hexahydro-1H-indol-6-yl octanoate], the “Prodrug (%) remaining, Rat Plasma” value was found to be 100.0% in data set [1] (0 h); 0.3% in data set [1] (10 min); 0.1% in data set [1] (0.5 h); 0.1% in data set [1] (1 h); 0.1% in data set [1] (2 h); 0.1% in data set [1] (4 h). Moreover, the “Prodrug (%) remaining, Human Plasma” value in data set [2] (0 h) stood at 100.0%; in data set [2] (10 min), 13.9%; in data set [2] (0.5 h), 3.5%; in data set [2] (1 h), 1.1%; in data set [2] (2 h), 0.3%; in data set [2] (4 h), 0.1%.
Consider `COc1ccc([C@@]23CCC(OC(=O)CCN)=C[C@@H]2N(C)CC3)cc1OC` [Compound 397, (3aS,7aS)-3a-(3,4-dimethoxyphenyl)-1-methyl-2,3,3a,4,5,7a-hexahydro-1H-indol-6-yl3-aminopropanoate], for which the “Prodrug (%) remaining, Rat Plasma” value in data set [1] (0 h) is 100.0%; in data set [1] (10 min) it was 10.5%; in data set [1] (0.5 h), 0.5%; in data set [1] (1 h), 0.1%; in data set [1] (2 h), 0.1%; in data set [1] (4 h), 0.1%. Further, the “Prodrug (%) remaining, Human Plasma” value in data set [2] (0 h) is on record as 100.0%; in data set [2] (10 min), 2.2%; in data set [2] (0.5 h), 0.5%; in data set [2] (1 h) it was 0.1%; in data set [2] (2 h) it was 0.2%; in data set [2] (4 h), 0.0%.
With `CCCC(CC)CC(=O)OC1=C[C@@H]2N(C)CC[C@]2(c2ccc(OC)c(OC)c2)CC1` (stereo partly drawn) [Compound 398, (3aS,7aS)-3a-(3,4-dimethoxyphenyl)-1-methyl-2,3,3a,4,5,7a-hexahydro-1H-indol-6-yl3-ethylhexanoate], the “Prodrug (%) remaining, Rat Plasma” value in data set [1] (0 h) is on record as 100.0%; in data set [1] (10 min), 2.8%; in data set [1] (0.5 h), 0.7%; in data set [1] (1 h), 0.1%; in data set [1] (2 h), 0.0%; in data set [1] (4 h) it was 0.0%. The “Prodrug (%) remaining, Human Plasma” value was found to be 100.0% in data set [2] (0 h); 96.4% in data set [2] (10 min); 85.0% in data set [2] (0.5 h); 72.4% in data set [2] (1 h); 51.6% in data set [2] (2 h); 25.5% in data set [2] (4 h).
As for `COc1ccc([C@@]23CCC(OC(=O)CCC(C)C)=C[C@@H]2N(C)CC3)cc1OC` [Compound 399, (3aS,7aS)-3a-(3,4-dimethoxyphenyl)-1-methyl-2,3,3a,4,5,7a-hexahydro-1H-indol-6-yl4-methylpentanoate], the “Prodrug (%) remaining, Rat Plasma” value in data set [1] (0 h) was 100.0%; in data set [1] (10 min), 0.0%; in data set [1] (0.5 h) it was 0.0%; in data set [1] (1 h), 0.0%; in data set [1] (2 h) it was 0.0%; in data set [1] (4 h), 0.0%. Moreover, the “Prodrug (%) remaining, Human Plasma” value in data set [2] (0 h) is 100.0%; in data set [2] (10 min), 5.6%; in data set [2] (0.5 h), 1.1%; in data set [2] (1 h), 0.5%; in data set [2] (2 h), 0.3%; in data set [2] (4 h) it was 0.2%.
